Consider three compounds from publication PMC11674118, “New High-Affinity Peptide Ligands for Kv1.2 Channel: Selective Blockers and Fluorescent Probes” (Cells, 2024).

Read-outs that look alike come from different tables or passages of the source. Where a SMILES comes first, the peptide text is derived from it. Bridges are numbered along the chain shown (N, C = ends).

One assay has as its system K-Kv1.2 channel. The assay can be described thus: Whole-cell patch-clamp of Neuro2a cells transfected with K-Kv1.2. Particulars: for block of current through K-Kv1.2: 10 nM peptide, whole-cell, representative traces (Figure 8d-g). It counts as cell-based, human. The protocol:
The patch-clamp method (whole-cell configuration) was used to measure membrane ion currents as described earlier. All the measurements were carried out at room temperature in a buffer containing (mM) 140 NaCl, 2.8 KCl, 2 MgCl2, 2 CaCl2, 10 HEPES, and 10 glucose (pH 7.4). Resistance of the micropipette tip was 6–8 MΩ. The pipette solution contained (mM) 140 KCl, 6 CaCl2, 2 MgCl2, 2 MgATP, 0.4 NaGTP, 10 HEPES, and 20 BAPTA/KOH (pH 7.3). The holding potential was −40 mV. The membrane potential increased from −70 to +70 mV with the 20 mV step each 20 s and returned to −40 mV. The duration of voltage pulses was 200 ms.
Measurements were carried out in 24–48 h after transfection of cells. HgTx1 (2 nM), HgTx-G (7.5 nM), Ce1 (10 nM), and Ce4 (10 nM) were dissolved in the extracellular buffer.
In general terms: In patch-clamp work, channel activity is measured electrically.

Assay [1] deals with Kv1.1 channel (K-Kv1.1). Put plainly: Competitive displacement of A-HgTx from complexes with K-Kv1.1 on Neuro2a cells. It counts as binding. Particulars: for Kd: displacement of A-HgTx (2 nM) from K-Kv1.1, Neuro2a cells (Figure S7), read-out: Kap, Kv1.1. The source says: Content of secondary structures in the studied peptides
Table S1. Content of secondary structures in the studied peptides (%) according to the CD analysis.
Peptide α-helix β-sheet Turns Random coil
Studies of affinity of Ce1 and Ce4 peptides to Kv1.1 and Kv1.3 channels Affinity of MgTx to Kv1.3 channel and peptides Ce1 and Ce4 to Kv1.1 and Kv1.3 channels was studied using previously developed analytical systems based on fluorescent ligand A-HgTx and Kv1.1 (Kv1.3) channels expressed in the membrane of Neuro2a cells in the form of the conjugates with mKate2 fluorescent protein (K-Kv1.1 and K-Kv1.3). The approach based on the competitive displacement of A-HgTx (2 nM) from the complex with the channel by the increasing concentration of the studied peptide (Figure S6) and the previously approved formalism (described in the Materials and Methods section) were used to evaluate Kap values for MgTx, Ce1 and Ce4 peptides. For the complexes of MgTx, Ce1 and Ce4 with Kv1.3 channel the Kap values are 1.4±0.7, 13±8 and 30±10 nM, respectively. For the complex of Ce1 with Kv1.1 channel, Kap is equal to 11±5 nM. Since Ce4 […]
(Figure S6b), Kap of the complex between Ce4 and Kv1.1 is estimated to be higher than 300 nM.
Figure S7. Competitive displacement of A-HgTx (2 nM) from the complexes with K-Kv1.1 (a, b) and K-Kv1.3 (c) by Ce1, Ce4 and MgTx peptides. (a,c) The dependences of the Rav/Rav0 parameter (see the Materials and Methods section) on the concentration C of the added competitor are shown. Data are averaged over three independent experiments and presented as mean±SEM. (b) Histogram showing the effect of 1 µM Ce4 on the binding of A-HgTx (2 nM) to K-Kv1.1.
Molecular modeling of Kv1.2 channel and its complexes with peptide blockers
(1 picture or pasted object on this page, not shown here)

Assay [2] has as its target Kv1.1 channel (K-Kv1.1). Particulars: similar analytical system, read-out: Kap, Kv1.1; cited from earlier work. An excerpt:
Table 2 Sequences of Ce1, Ce4, HgTx1, and MgTx peptides and dissociation constants (Kap, nM) of their complexes with Kv1.2, Kv1.1, and Kv1.3 channels. | column: Kap, nM

The next assay deals with Kv1.2 channels. Particulars: mammalian cells with depolarized membranes; read-out: 50% inhibition of the Rb+ flux through Kv1.2; cited from earlier work. The source says:
Kap of MgTx in our experiments is consistent with the last value.

Regarding `CC[C@H](C)[C@H](NC(=O)[C@@H](NC(=O)[C@@H](N)[C@@H](C)O)C(C)C)C(=O)N[C@@H](CC(N)=O)C(=O)N[C@H](C(=O)N[C@@H](CCCCN)C(=O)N[C@H]1CSSC[C@@H]2NC(=O)[C@H](CCCCN)NC(=O)[C@H](C)NC(=O)CNC(=O)[C@H](C)NC(=O)[C@H](Cc3c[nH]cn3)NC(=O)[C@@H]3CCCN3C(=O)CNC(=O)[C@H](Cc3ccc(O)cc3)NC(=O)[C@H](CC(C)C)NC(=O)[C@H](CC(=O)O)NC(=O)[C@H](CCCCN)NC(=O)[C@@H]3CSSC[C@@H](C(=O)N[C@@H](Cc4ccc(O)cc4)C(=O)N[C@@H](CC(N)=O)C(=O)N[C@@H](CC(N)=O)C(=O)O)NC(=O)[C@H](CCCCN)NC(=O)[C@H](CSSC[C@H](NC(=O)[C@H](CCC(N)=O)NC(=O)[C@H](CCCCN)NC(=O)[C@@H]4CCCN4C(=O)[C@H](CO)NC(=O)[C@H]([C@@H](C)O)NC1=O)C(=O)N[C@@H](CC(C)C)C(=O)N[C@@H](CCCCN)C(=O)N1CCC[C@H]1C(=O)N3)NC(=O)[C@H](CCCCN)NC(=O)CNC(=O)[C@H](CC(N)=O)NC(=O)[C@H](CCSC)NC2=O)C(C)C` [Ce1] (H-TVINVKCTSPKQCLKPCKDLYGPHAGAKCMNGKCKCYNN-OH; disulfide 7-29, 13-34, 17-36 (inferred); N-terminus and C-terminus assumed), the “block of current through K-Kv1.2” value with K-Kv1.2 channel is recorded as “block current through the channel”. Also, the Kd with Kv1.1 channel (K-Kv1.1) [1] was 11 ± 5 nM.
With `CC[C@H](C)[C@H](NC(=O)[C@H](CCCCN)NC(=O)[C@H](Cc1ccc(O)cc1)NC(=O)[C@@H]1CSSC[C@@H]2NC(=O)[C@@H]3CCCN3C(=O)[C@H](CC(C)C)NC(=O)[C@H](CC(C)C)NC(=O)[C@@H]3CSSC[C@H](NC(=O)[C@H](CCCCN)NC(=O)CNC(=O)[C@H](CC(N)=O)NC(=O)[C@H](CCSC)NC(=O)[C@H](CSSC[C@H](NC(=O)[C@H](CCCCN)NC(=O)[C@@H](NC(=O)[C@H](CC(N)=O)NC(=O)[C@@H](NC(=O)[C@@H](NC(=O)[C@@H](N)[C@@H](C)O)[C@@H](C)CC)[C@@H](C)CC)C(C)C)C(=O)N[C@@H]([C@@H](C)O)C(=O)N[C@@H](CO)C(=O)N4CCC[C@H]4C(=O)N[C@@H](CCCCN)C(=O)N[C@@H](CCC(N)=O)C(=O)N3)NC(=O)[C@H](CCCCN)NC(=O)[C@H](C)NC(=O)CNC(=O)[C@H](C)NC(=O)[C@H](Cc3c[nH]cn3)NC(=O)[C@H]([C@@H](C)CC)NC(=O)CNC(=O)[C@H](Cc3ccc(O)cc3)NC(=O)[C@H]([C@@H](C)CC)NC(=O)[C@H](CCC(=O)O)NC(=O)[C@H](CCCCN)NC2=O)C(=O)N[C@@H](CCCCN)C(=O)N1)C(=O)O` [Ce4] (H-TIINVKCTSPKQCLLPCKEIYGIHAGAKCMNGKCKCYKI-OH; disulfide 7-29, 13-34, 17-36 (inferred); N-terminus and C-terminus assumed), the “block of current through K-Kv1.2” value with K-Kv1.2 channel is reported as “block current through the channel”. For the same compound, the Kd in the assay with Kv1.1 channel (K-Kv1.1) [1] was greater than 300 nM. The “displacement of A-HgTx (2 nM) from the complex with Kv1.1 channel” value with Kv1.1 channel (K-Kv1.1) [1] (till the 1 µM concentration of peptide) is listed as “does not displace A-HgTx”.
On to `CC[C@H](C)[C@@H]1NC(=O)CNC(=O)[C@H](Cc2ccccc2)NC(=O)[C@H](CCC(N)=O)NC(=O)[C@H](C)NC(=O)[C@H](CCCCN)NC(=O)[C@@H]2CSSC[C@@H](C(=O)N[C@@H](Cc3ccc(O)cc3)C(=O)N3CCC[C@H]3C(=O)N[C@@H](Cc3c[nH]cn3)C(=O)O)NC(=O)[C@H](CCCCN)NC(=O)[C@@H]3CSSC[C@H](NC(=O)[C@H](CCC(N)=O)NC(=O)[C@H](CCCCN)NC(=O)[C@@H]4CCCN4C(=O)[C@H](CO)NC(=O)[C@H]([C@@H](C)O)NC(=O)[C@@H](NC(=O)[C@H](CCCCN)NC(=O)[C@@H](NC(=O)[C@H](CC(=O)O)NC(=O)[C@@H](NC(=O)[C@@H](NC(=O)[C@@H](N)[C@@H](C)O)C(C)C)[C@@H](C)CC)C(C)C)CSSC[C@H](NC(=O)[C@H](CCCCN)NC(=O)[C@H](C)NC(=O)CNC(=O)[C@H](C)NC(=O)[C@H](CCCNC(=N)N)NC1=O)C(=O)N[C@@H](CCSC)C(=O)N[C@@H](CC(N)=O)C(=O)NCC(=O)N[C@@H](CCCCN)C(=O)N3)C(=O)N[C@@H](CC(C)C)C(=O)N1CCC[C@H]1C(=O)N1CCC[C@H]1C(=O)N2` [HgTx1, hongotoxin 1] (H-TVIDVKCTSPKQCLPPCKAQFGIRAGAKCMNGKCKCYPH-OH; disulfide 7-29, 13-34, 17-36 (inferred); N-terminus and C-terminus assumed), for which the “block of K-Kv1.2 channel currents” value in the assay on K-Kv1.2 channel (2 nM HgTx1, whole-cell, room temperature, n = 10) was 84 ± 2%. Moreover, the Kd on Kv1.1 channel (K-Kv1.1) [2] was 0.03 ± 0.02 nM. The IC50 with Kv1.2 channels was 0.14 nM.
